Laboratory results from PubChem BioAssay (NCI).
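Compound exposure: 48 hours, 5 concentrations, 96-well plates. TGI denotes the concentration required for complete inhibition of growth.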

What was measured:
Assay in all cases: growth of human tumour cells (NCI), 48 h
[1] = tested on: HT29 colon
[2] = tested on: OVCAR-4 ovarian
[3] = tested on: T-47D breast
[4] = tested on: UO-31 renal
[5] = tested on: CCRF-CEM leukemia
[6] = tested on: KM12 colon
[7] = tested on: M14 melanoma
[8] = tested on: A549 NSCLC
[9] = tested on: UACC-257 melanoma
[10] = tested on: SNB-75 CNS
[11] = tested on: NCI-H522 lung
[12] = tested on: CAKI-1 renal
[13] = tested on: SK-MEL-2 melanoma
[14] = tested on: MOLT-4 leukemia
[15] = tested on: HCT-15 colon
[16] = tested on: SN12C renal
[17] = tested on: NCI/ADR-RES ovarian
[18] = tested on: COLO 205 colon
[19] = tested on: SF-295 CNS
[20] = tested on: 786-0 renal
[21] = tested on: SF-268 CNS
[22] = tested on: BT-549 breast
[23] = tested on: TK-10 renal
[24] = tested on: SR leukemia
[25] = tested on: ACHN renal
[26] = tested on: K-562 leukemia
[27] = tested on: MDA-MB-231 breast
[28] = tested on: HL-60(TB) leukemia
[29] = tested on: HOP-62 NSCLC
[30] = tested on: MDA-MB-435
[31] = tested on: SK-MEL-28 melanoma
[32] = tested on: HOP-92 NSCLC
[33] = tested on: HCT-116 colon
[34] = tested on: OVCAR-5 ovarian
[35] = tested on: NCI-H23 lung
[36] = tested on: SK-OV-3 ovarian
[37] = tested on: SK-MEL-5 melanoma
[38] = tested on: MCF7 breast
[39] = tested on: LOX IMVI melanoma
[40] = tested on: NCI-H460 lung
[41] = tested on: OVCAR-3 ovarian
[42] = tested on: U251 CNS
[43] = tested on: IGROV1 ovarian
[44] = tested on: UACC-62 melanoma
[45] = tested on: MDA-N
[46] = tested on: SF-539 CNS
[47] = tested on: A498 renal
[48] = tested on: SW-620 colon
[49] = tested on: RPMI-8226 leukemia
[50] = tested on: RXF 393 renal
[51] = tested on: OVCAR-8 ovarian
[52] = tested on: SNB-19 CNS
[53] = tested on: PC-3 prostate
[54] = tested on: EKVX NSCLC
[55] = tested on: DU-145 prostate
[56] = tested on: HS 578T breast
[57] = tested on: MALME-3M melanoma

Measured: TGI

O=C(c1cccc(F)c1F)N1CCc2c([nH]c3ccccc23)C1c1ccc2c(c1)OCO2 (stereo not drawn)
60.2 µM: [11]
61.4 µM: [52]
21.3 µM: [24]
60.4 µM: [9]
48.1 µM: [49]
72.5 µM: [8]
21.4 µM: [46]
7.01 µM: [45]
51.9 µM: [36]
65.3 µM: [54]
87.2 µM: [12]
29.9 µM: [40]
48.8 µM: [44]
6.09 µM: [30]
32.7 µM: [6]
47.7 µM: [4]
74.5 µM: [27]
67.8 µM: [2]
13.4 µM: [37]
39.2 µM: [53]
22.2 µM: [10]
16.5 µM: [13]
53 µM: [17]
91.1 µM: [16]
57.4 µM: [38]
26.3 µM: [19]
2.83 µM: [29]
35.4 µM: [50]
18.7 µM: [28]
18.4 µM: [7]
5.26 µM: [41]
12.9 µM: [18]
> 100 µM: all other assays above

COc1cc(O)cc2oc(-c3ccc(O)cc3)cc(=O)c12
62.7 µM: [10]
78.3 µM: [47]
not listed: [2]
> 100 µM: all other assays above
